Structures can show the parent of a compound that is named as a salt.
Experiment: Dynamic moisture-sorption (DMS)
Type: physicochemical
Conditions: for hygroscopicity (DMS) / total weight gain from the dried state (DMS): 25° C.; for weight gain at 90% RH and 25° C. (DMS): after a drying period
Description: A dynamic moisture-sorption (DMS) study was conducted using a dynamic moisture-sorption analyzer, VTI Corporation, SGA-100. Samples were prepared for DMS analysis by placing 5 mg to 20 mg of a sample in a tared sample holder. The sample was placed on the hang-down wire of the VTI balance. A drying step was run, typically at 40° C. and 0.5-1% RH for 1 h. The isotherm temperature is 25° C. Defined % RH holds typically ranged from 10% RH to 90% RH, with intervals of 10 to 20% RH. A % weight change smaller than 0.010% over 10 min, or up to 2 h, whichever occurred first, was required before continuing to the next % RH hold. The water content of the sample equilibrated as described above was determined at each % RH hold.

Row | Structure (SMILES) | hygroscopicity (DMS) | weight gain at 90% RH and 25° C. (DMS) | water picked up from 30% RH to 90% RH at 25° C. (DMS) | total weight gain from the dried state (DMS)
1 | NC(=O)[C@H](CO)NCc1ccc(C(=O)Nc2ccc(Cl)cc2N2CCN(CCC(F)(F)F)CC2)c(F)c1F [Compound 170 (Example 2.5B)] | FIG. 11: This polymorph of the free base is non-hygroscopic, | increasing ~0.1% weight at 90% RH and 25 °C | – | –
2 | NC(=O)[C@H](CO)NCc1ccc(C(=O)Nc2ccc(Cl)cc2N2CCN(CCC(F)(F)F)CC2)c(F)c1F [Compound 170 dihydrochloride hydrate] | – | – | 0.7% water from 30% RH to 90% RH at 25 °C | dried state was about 2.5%. The sample picked up only about
3 | NC(=O)[C@H](CO)NCc1ccc(C(=O)Nc2ccc(Cl)cc2N2CCN(CCC(F)(F)F)CC2)c(F)c1F [Compound 170 dihydrochloride solvate] | – | – | – | The total weight gain from the dried state was about 2%, thus
4 | Cl.Cl.NC(=O)[C@H](CO)NCc1ccc(C(=O)Nc2ccc(Cl)cc2N2CCN(CCC(F)(F)F)CC2)c(F)c1F [Compound 170 dihydrochloride, (S)-4-((1-amino-3-hydroxy-1-oxopropan-2-ylamino)methyl)-N-(4-chloro-2-(4-(3,3,3-trifluoropropyl)piperazin-1-yl)phenyl)-2,3-difluorobenzamide dihydrochloride] | – | drying period, was about 3.4%. It was shown by PXRD of the | – | –
5 | NC(=O)[C@H](CO)NCc1ccc(C(=O)Nc2ccc(Cl)cc2N2CCN(CCC(F)(F)F)CC2)c(F)c1F [Compound 170, (S)-4-((1-Amino-3-hydroxy-1-oxopropan-2-ylamino)methyl)-N-(4-chloro-2-(4-(3,3,3-trifluoropropyl)piperazin-1-yl)phenyl)-2,3-difluorobenzamide] | non-hygroscopic | ~0.1% | – | –

From patent publication US20140309192A1, “MODULATORS OF THE G PROTEIN-COUPLED MAS RECEPTOR AND THE TREATMENT OF DISORDERS RELATED THERETO” (ARENA PHARMACEUTICALS, INC., priority 2011, published 2014)
